According to PubChem BioAssay (NCI):
Values joined by “and” are separate entries in the source; they are usually repeats but may differ in a detail not shown here. Identical values can stand only once.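 Exposure lasted 48 hours, with cells grown in 96-well plates and compounds tested at five concentrations. GI50 = concentration required for 50% inhibition of growth. Definition used: TGI = concentration required for complete inhibition of growth.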

Key:
Test in all cases: growth of human tumour cells (NCI), 48 h
CCRF-CEM leukemia = test system: CCRF-CEM leukemia
MOLT-4 leukemia = test system: MOLT-4 leukemia
BT-549 breast = test system: BT-549 breast
NCI-H226 lung = test system: NCI-H226 lung
UO-31 renal = test system: UO-31 renal
UACC-62 melanoma = test system: UACC-62 melanoma
NCI/ADR-RES ovarian = test system: NCI/ADR-RES ovarian
PC-3 prostate = test system: PC-3 prostate
IGROV1 ovarian = test system: IGROV1 ovarian
OVCAR-4 ovarian = test system: OVCAR-4 ovarian

| SMILES | GI50 (CCRF-CEM leukemia) | TGI (CCRF-CEM leukemia) | GI50 (MOLT-4 leukemia) | TGI (MOLT-4 leukemia) | GI50 (BT-549 breast) | TGI (BT-549 breast) | GI50 (NCI-H226 lung) | TGI (NCI-H226 lung) | GI50 (UO-31 renal) | TGI (UO-31 renal) | GI50 (UACC-62 melanoma) | TGI (UACC-62 melanoma) | GI50 (NCI/ADR-RES ovarian) | TGI (NCI/ADR-RES ovarian) | GI50 (PC-3 prostate) | TGI (PC-3 prostate) | GI50 (IGROV1 ovarian) | TGI (IGROV1 ovarian) | GI50 (OVCAR-4 ovarian) | TGI (OVCAR-4 ovarian) |
| --- | --- | --- | --- | --- | --- | --- | --- | --- | --- | --- | --- | --- | --- | --- | --- | --- | --- | --- | --- | --- |
| CC(=O)OCC1OC(OC2C(COC(C)=O)OC(OCCC[S-])C(OC(C)=O)C2OC(C)=O)C(OC(C)=O)C(OC(C)=O)C1OC(C)=O.[Au+].c1ccc(CN2[CH-]N(Cc3ccccc3)C(c3ccccc3)=C2c2ccccc2)cc1 (configuration not stated) | 3.39 µM | 21.5 µM | 3.42 µM | 26 µM | 3.37 µM | 14.8 µM | 4.68 µM | 33 µM | 2.61 µM | 10.7 µM | 2.63 µM | 8.96 µM | 19.5 µM | > 100 µM | 3.28 µM | 15 µM | 3.06 µM | 16 µM | 3.45 µM | 22.9 µM |
| COc1ccc(/C(C)=C(\c2ccc(Cl)cc2)c2ccc(OCCN3CCCC3)cc2)cc1 | 3.79 µM | 11.4 µM | 3.88 µM | 10.9 µM | 3.82 µM | 8.09 µM | 5.54 µM | 11.6 µM | 2.88 µM | 7.12 µM | 2.15 µM | 6.53 µM | 4.54 µM | 9.36 µM | 3.39 µM | 7.52 µM | 4.13 µM | 8.91 µM | 3.61 µM | 7.64 µM |
| COc1ccc(/C=C/c2c(C(=O)/C=C/c3ccc(Cl)cc3)c(C)nc3ccccc23)cc1 | 2.03 µM | > 100 µM | 2 µM | > 100 µM | 1.83 µM | 3.8 µM | 1.8 µM | 3.72 µM | 1.21 µM | 2.47 µM | 1.59 µM | 3.28 µM | 2.11 µM | 5.61 µM | 1.96 µM | 5.89 µM | 0.663 µM | 2.54 µM | 1.75 µM | 3.97 µM |
| COc1cc(C)c(C(=O)O[C@H]2[C@H](O[C@H]3[C@@H](O)COC(O[C@H]4C[C@H]5[C@@H]6CC=C7C[C@@H](O)CC[C@]7(C)[C@H]6CC[C@]5(C)[C@H]4[C@H](C)C(=O)CCC(C)C)[C@@H]3OC(C)=O)OC[C@@H](O)[C@@H]2O)c(C)c1 (some centres not stated) | < 0.01 µM | 0.102 µM | < 0.01 µM | 0.704 µM | < 0.01 µM | 5.5 µM | 0.135 µM | 12.4 µM | < 0.01 µM | 0.0584 µM | < 0.01 µM | < 0.01 µM | 4.79 µM | 31.2 µM | < 0.01 µM | 2.4 µM | 0.247 µM | 19.9 µM | 0.571 µM | 69.9 µM |
| O=C(/C=C/c1ccc(C(F)(F)F)cc1)c1ccc(Nc2nc(NCCO)nc(NCCO)n2)cc1 | 3.24 µM | 10.7 µM | 2.68 µM | 10.7 µM | 2.53 µM | 8 µM | 2.62 µM | 9.65 µM | 1.54 µM | 4.33 µM | 2.13 µM | 6.03 µM | 15.2 µM | 35 µM | 3.29 µM | 13.1 µM | 3 µM | 9.51 µM | 4.29 µM | 20.8 µM |
| O=C(c1ccccc1Nc1ccnc(C(F)(F)F)c1)N1CCN(c2cccc(Cl)c2)CC1 | 11.2 µM | > 84.5 µM | 11.9 µM | 44.5 µM | 15.9 µM | 37.3 µM | 15 µM | 49.2 µM | 13.7 µM | 68.1 µM | 10.6 µM | 25.7 µM | 16.2 µM | 59.5 µM | 9.45 µM | 53 µM | 5.53 µM | 24 µM | 12.7 µM | > 100 µM |
| CC1(C)CCC[C@]23C(=O)O[C@](O)(C(=O)C4=C[C@@](C)(/C=C/CCCc5ccc6ccc7cccc8ccc5c6c78)CC[C@@]42O)[C@@H]13 | 0.199 µM | 5.87 µM | 0.265 µM | 11.2 µM | 0.141 µM | 0.282 µM | 0.166 µM | 0.328 µM | 0.156 µM | 0.291 µM | 0.176 µM | 0.343 µM | 0.221 µM | 0.532 µM | 0.166 µM | 0.378 µM | 0.175 µM | 0.329 µM | 0.259 µM | 0.616 µM |
| O=C1c2ccccc2C(=O)c2c1ccc(C(Br)Br)c2[N+](=O)[O-] | 0.582 µM | 2.53 µM | 1.23 µM | 3.43 µM | 2.51 µM | 8.3 µM | 0.727 µM | 2.62 µM | 1.52 µM | 2.93 µM | 1.31 µM | 3.1 µM | 2.01 µM | 6.56 µM | 1.74 µM | 3.47 µM | 1.15 µM | 2.87 µM | 1.34 µM | 2.73 µM |
| COc1ccc(N2CCN(C(=O)c3ccccc3Nc3ccnc(C(F)(F)F)c3)CC2)cc1 | 53.9 µM | > 100 µM | 29.3 µM | > 100 µM | 68.5 µM | > 100 µM | 96.5 µM | > 100 µM | 28 µM | > 100 µM | 30.9 µM | > 100 µM | 23.8 µM | > 100 µM | 18.7 µM | > 100 µM | 13.7 µM | 93.6 µM | 22.4 µM | > 100 µM |
| CC(C)C[C@H](NC(=O)[C@H](CCc1ccccc1)NC(=O)CN1CCOCC1)C(=O)N[C@@H](Cc1ccccc1)C(=O)N[C@@H](CC(C)C)C(=O)[C@@]1(C)CO1 | < 0.01 µM | > 100 µM | < 0.01 µM | > 100 µM | < 0.01 µM | 0.0242 µM | < 0.0122 µM | < 0.0175 µM | 0.116 µM | 0.575 µM | 0.033 µM | 0.114 µM | 0.636 µM | > 100 µM | 0.0247 µM | 0.305 µM | 0.0324 µM |  | < 0.0117 µM |  |
| C[C@]12O[C@H](C[C@]1(O)CO)n1c3ccccc3c3c4c(c5c6ccccc6n2c5c31)CNC4=O | 0.0501 µM and 0.0461 µM |  | 0.0386 µM and 0.0457 µM | 0.451 µM and 1.18 µM | 0.203 µM and 0.288 µM | 1.45 µM and 1.81 µM | 0.267 µM and 0.272 µM | 1.79 µM and 2.05 µM | 0.0238 µM and 0.0286 µM | 1.08 µM and 1.29 µM | 0.0366 µM and 0.0402 µM | 1.3 µM and 1.15 µM | 0.87 µM and 1.37 µM | 5.15 µM and 7.26 µM | 0.0846 µM and 0.133 µM | > 5.89 µM and 3.9 µM | 0.0514 µM and 0.111 µM | 3.67 µM and 4.9 µM | 0.891 µM and 1.4 µM | 4.99 µM and 7.19 µM |
| COc1ccc(C(=O)c2cc(OC)c(OC)c(OC)c2)cc1OC(C)=O | 0.0353 µM | > 100 µM | < 0.0199 µM | > 43.3 µM | < 0.0199 µM | > 67.5 µM | 8.71 µM | > 100 µM | 0.195 µM | > 100 µM | 0.448 µM | > 100 µM | < 0.0153 µM | > 100 µM | 0.0208 µM | > 100 µM | 0.272 µM | > 100 µM | 0.0822 µM | > 100 µM |
